Test results from patent US5834259A, “Process and composition for preparing D-aspartic acid” (Monsanto Company, priority 1996, dated 1998).

Key:
Format in all cases: biochemical, E. coli K12
[1] = target: T1, L-aspartate-α-decarboxylase (Escherichia coli, UniProt P0A790); experiment: Bioconversion of 0.5M D/L-aspartate with NS3291 cells (Example 3)
T1 construct: expressed in transfected cells; host or cells: E. coli W3110 transformed with pIF309 = strain NS3291 (ATCC 98675), whole cells
Description: 66.5 g (0.5M) D/L-aspartate (Sigma, A-9006) was weighed into a 2 L beaker and the pH adjusted to 7.0 with 10N NaOH. The volume was brought to 963 ml with deionized H2 O. 137 ml of cells (NS 3291, described above) were added at a packed cell volume ("PCV") of 7.31 g/10 ml cells resulting in a final volume of 1.1 L. Samples (approximately 1 ml each) were removed over time, centrifuged and the supernatant fluid was analyzed by HPLC for D- and L-aspartic acid content.
In all of the Examples herein, D- and L-aspartic acid isomers were quantified by HPLC using the following precolumn derivatization method. Aspartic acid was converted into diastereomers using ortho-phthalaldehyde and N-acetyl-L-cysteine. Separation of the diastereomers was achieved on a Supelcosil™ LC-18DB, 3μ, 150×4.6 mm column using a mobile phase of A: 20% methanol/80% triethylamine phosphate and B: methanol, and a step gradient as follows: […]
Retention times were 4.19 minutes and 4.54 minutes for D-aspartic acid and L-aspartic acid, respectively.
Samples from bioconversions were centrifuged to remove cells in a microcentrifuge and the supernatant fluid diluted appropriately such that the value determined from the HPLC fell within the linear region of the standard curve. These dilutions were usually between 1:100 and 1:200, made with deionized water.

[2] = target: T1, L-aspartate-α-decarboxylase; experiment: 1.0M D/L-aspartate, 100 g/l cells, reaction A (Example 6); conditions: for concentration in supernatant fluid: 1.0M, 100 g/l cells, 37° C.
Description: (§1) 1.0M D/L-aspartate was tested as a substrate for two enzyme cell loads, 100 g/l cells, referred to here as reaction "A", and 50 g/l cells, referred to here as reaction "B".
(§2) 133.1 g of D/L-aspartic acid was dissolved in approximately 600 ml deionized H2 O and pH was adjusted to 7.0 with NaOH, using 100 ml of 10N NaOH and a small amount of 1.0N NaOH. The substrate for reaction A was brought to 963 ml with deionized H2 O. The reaction was started with 137 ml cells that were stored in the cold room. For reaction B, the substrate was brought to a volume of 981.5 ml. The reaction was started with […] cells.
(§3) Both reactions were carried out in 2 L fermentors at pH 7.0 without constant adjustments and at 37° C. Samples were removed over time, centrifuged and the supernatant fluid was diluted and submitted for D- and L-aspartic acid HPLC analysis.

[3] = target: T1, L-aspartate-α-decarboxylase; experiment: 1.0M D/L-aspartate, 50 g/l cells, reaction B (Example 6); conditions: 37° C.
Description: as §1, §2, §3

[4] = target: T1, L-aspartate-α-decarboxylase; experiment: NH4OH neutralized 1.0M D/L-aspartate substrate (Example 7); conditions: for concentration in supernatant fluid / percent remaining: 1.0M, NH4OH neutralized, 37° C.
Description: Cells were stored frozen at -80° C. 133.1 g (1 mol) D/L-aspartic acid was dissolved in approximately 600 ml deionized H2 O and adjusted to a pH of about 7 with concentrated NH4 OH. The final volume of substrate was brought to 963 ml to which was added 137 ml cells, freshly thawed. The mixture was placed in the 2 L fermentor and the temperature adjusted to 37° C. No automatic pH control was used, however, the pH was monitored as samples were removed and the pH adjusted with 50% NH4 OH. Samples, approximately 1 ml, were removed periodically, centrifuged, and the supernatant fluid was stored frozen prior to diluting and HPLC analysis.

[5] = target: T1, L-aspartate-α-decarboxylase; experiment: Temperature study, 45° C. (Example 9); conditions: 1.0M, 100 g/l cells
Description: 133.1 g (1 mol) of D/L-aspartic acid was dissolved in deionized H2 O and the pH was adjusted to 7.0 with 10N NaOH, approximately 100 ml. Cells, freshly thawed from -80° C., were added to achieve a final concentration of 100 g/l. Three 2 L fermentors were each charged with 963 ml of substrate solution and 137 ml of cells and then heated to 37° C. and 45° C. while mixing at 300 rpm or heated to 50° C. while mixing at 450 rpm. Samples, approximately 1 ml, were removed over time and pH adjusted to 7.0 with either NaOH or HCl. After centrifugation to remove cells, the supernatant fluid was analyzed for both D- and L-aspartic acid.

T1 sequence (P0A790 25-126): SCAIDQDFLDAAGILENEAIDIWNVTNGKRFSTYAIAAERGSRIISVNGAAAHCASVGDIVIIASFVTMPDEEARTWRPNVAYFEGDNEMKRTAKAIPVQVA
T1 sequence (P0A790 1-24): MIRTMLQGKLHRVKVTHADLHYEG

`N[C@@H](CC(=O)O)C(=O)O` [L-Asp, L-aspartic acid] gave a percent remaining ([1]; 5.5000 hr) of 41.739%, a percent remaining ([1]; 24.500 hr) of 0.5888% and a percent remaining ([1]; 26.500 hr) of 0.4157%. For the same compound, the percent remaining ([1]; 32.500 hr) was 0.2078%, the percent remaining ([1]; 47.500 hr) was 0.1039% and the percent remaining ([1]; 52.000 hr) was 0.06928%. For the same compound, the percent remaining ([1]; 68.000 hr) was 1.4894%, the “concentration in supernatant fluid” value ([2]; 0.0000 hr) was 54.850 mg/mL and the “concentration in supernatant fluid” value ([2]; 0.0000 hr, listed as L-aspartate) was 53.6 mg/mL. The “concentration in supernatant fluid” value ([2]; 2.0000 hr) was 49.340 mg/mL, the “concentration in supernatant fluid” value ([2]; 4.5000 hr) was 50.710 mg/mL and the “concentration in supernatant fluid” value ([2]; 7.0000 hr) was 50.230 mg/mL. The “concentration in supernatant fluid” value ([2]; 22.500 hr) was 54.490 mg/mL, the “concentration in supernatant fluid” value ([2]; 24.000 hr) was 50.780 mg/mL and the “concentration in supernatant fluid” value ([2]; 31.000 hr) was 51.450 mg/mL. For the same compound, the “concentration in supernatant fluid” value ([2]; 37.500 hr) was 53.850 mg/mL, the “concentration in supernatant fluid” value ([2]; 47.000 hr) was 52.370 mg/mL and the “concentration in supernatant fluid” value ([2]; 50.500 hr) was 51.080 mg/mL. For the same compound, the “concentration in supernatant fluid” value ([2]; 53.800 hr) was 46.500 mg/mL, the “concentration in supernatant fluid” value ([2]; 58.000 hr) was 50.040 mg/mL and the “concentration in supernatant fluid” value ([2]; 70.000 hr) was 52.400 mg/mL. For the same compound, the “concentration in supernatant fluid” value ([2]; 72.000 hr) was 50.430 mg/mL, the “concentration in supernatant fluid” value ([2]; 72.000 hr, listed as L-aspartate) was 5.39 mg/mL and the “reduction of L-aspartate” value ([2]; after 72.0 hours, 1.0M substrate) was 90%. The “concentration in supernatant fluid” value ([3]; 0.0000 hr) was 57.440 mg/mL, the “concentration in supernatant fluid” value ([3]; 2.0000 hr) was 53.770 mg/mL and the “concentration in supernatant fluid” value ([4]; 0.0000 hr) was 55.740 mg/mL. The “concentration in supernatant fluid” value ([4]; 3.0000 hr) was 53.380 mg/mL, the percent remaining ([4]; 3.0000 hr) was 95.766% and the “concentration in supernatant fluid” value ([4]; 6.0000 hr) was 56.370 mg/mL. The percent remaining ([4]; 6.0000 hr) was 101.13%, the “concentration in supernatant fluid” value ([4]; 9.0000 hr) was 56.680 mg/mL and the percent remaining ([4]; 9.0000 hr) was 101.69%. The “concentration in supernatant fluid” value ([4]; 19.000 hr) was 59.270 mg/mL, the percent remaining ([4]; 19.000 hr) was 106.33% and the “concentration in supernatant fluid” value ([4]; 23.500 hr) was 54.930 mg/mL. For the same compound, the percent remaining ([4]; 23.500 hr) was 98.547%, the “concentration in supernatant fluid” value ([4]; 28.000 hr) was 52.620 mg/mL and the percent remaining ([4]; 28.000 hr) was 94.403%. For the same compound, the “concentration in supernatant fluid” value ([4]; 32.500 hr) was 50.900 mg/mL, the percent remaining ([4]; 32.500 hr) was 91.317% and the “concentration in supernatant fluid” value ([4]; 43.000 hr) was 53.520 mg/mL. For the same compound, the percent remaining ([4]; 43.000 hr) was 96.017%, the percent remaining ([4]; 49.000 hr) was 91.676% and the “rate of L-Asp utilization” value ([4]; NH4+ salt as compared to the Na+ salt) was “slower”. The “concentration in supernatant fluid” value ([5]; 0.000 hr) was 54.410 mg/mL, the percent remaining ([5]; 2.5000 hr) was 92.079% and the “concentration in supernatant fluid” value ([5]; 4.0000 hr) was 47.110 mg/mL. The percent remaining ([5]; 4.0000 hr) was 86.583%, the “concentration in supernatant fluid” value ([5]; 6.0000 hr) was 43.130 mg/mL and the percent remaining ([5]; 6.0000 hr) was 79.269%. The “concentration in supernatant fluid” value ([5]; 8.0000 hr) was 39.310 mg/mL, the percent remaining ([5]; 8.0000 hr) was 72.248% and the “concentration in supernatant fluid” value ([5]; 10.000 hr) was 36.800 mg/mL. For the same compound, the percent remaining ([5]; 10.000 hr) was 67.635%, the “concentration in supernatant fluid” value ([5]; 12.000 hr) was 34.540 mg/mL and the percent remaining ([5]; 12.000 hr) was 63.481%. For the same compound, the “concentration in supernatant fluid” value ([5]; 20.000 hr) was 24.690 mg/mL, the percent remaining ([5]; 20.000 hr) was 45.378% and the “concentration in supernatant fluid” value ([5]; 24.000 hr) was 23.210 mg/mL. The percent remaining ([5]; 24.000 hr) was 42.658%, the “concentration in supernatant fluid” value ([5]; 29.000 hr) was 21.700 mg/mL and the percent remaining ([5]; 29.000 hr) was 39.882%. For the same compound, the “concentration in supernatant fluid” value ([5]; 34.000 hr) was 19.310 mg/mL, the percent remaining ([5]; 34.000 hr) was 35.490% and the “concentration in supernatant fluid” value ([5]; 44.000 hr) was 15.800 mg/mL. The percent remaining ([5]; 44.000 hr) was 29.039%, the “concentration in supernatant fluid” value ([5]; 48.000 hr) was 16.700 mg/mL and the percent remaining ([5]; 48.000 hr) was 30.822%. The “concentration in supernatant fluid” value ([5]; 68.000 hr) was 16.050 mg/mL, the percent remaining ([5]; 68.000 hr) was 29.498% and the “concentration in supernatant fluid” value ([5]; 92.000 hr) was 13.370 mg/mL. For the same compound, the percent remaining ([5]; 92.000 hr) was 24.573%.
